Assay results: patent US7767665B2, “1,3-benzothiazinone derivatives and use thereof” (Takeda Pharmaceutical Company Limited, priority 2001, dated 2010)

For `O=c1nc(-c2ccnc(N3CCN(c4ccc(F)cc4)CC3)c2)sc2ccccc12` [Example 74, 2-{2-[4-(4-Fluorophenyl)-1-piperazinyl]-4-pyridyl}-4H-1,3-benzothiazine-4-one], the melting point was 233 to 233.6 °C.
In the case of `O=c1nc(-c2ccnc(-c3ccccc3)c2)sc2ccccc12` [Example 75, 2-(2-Phenyl-4-pyridyl)-4H-1,3-benzothiazine-4-one], the melting point is reported as 162.7 to 163 °C.
`O=c1nc(-c2ccnc(-c3cccs3)c2)sc2ccccc12` [Example 75, 2-[2-(2-Thienyl)-4-pyridyl]-4H-1,3-benzothiazine-4-one] gave a melting point of 160.4 to 161.1 °C.
For `CC(C)(C)OC(=O)CCc1cccc(-c2nc(=O)c3ccccc3s2)n1` [Example 78, tert-Butyl 3-[6-(4-oxo-4H-1,3-benzothiazin-2-yl)-2-pyridyl]propanoate], the melting point was 165.8 to 166 °C.
In the case of `O=c1nc(-c2ccccn2)sc2ccc(O)cc12` [Example 84, 6-Hydroxy-2-(2-pyridyl)-4H-1,3-benzothiazine-4-one], the melting point is reported as 313.3 to 315 °C.
In the case of `COC(CCCNc1ccc(-c2nc(=O)c3ccccc3s2)cn1)OC` [Example 86, 2-[6-[(4,4-Dimethoxybutyl)amino]-3-pyridyl]-4H-1,3-benzothiazine-4-one], the melting point is reported as 157.2 to 158.5 °C.
With `Cc1cc(C)c2sc(-c3cccc(CCCOCCC(=O)OC(C)(C)C)n3)nc(=O)c2c1` [Example 87] the melting point was 105.3 to 107.3 °C.
Compound `Cc1cc(C)c2sc(-c3cccc(CCCOCCC(=O)O)n3)nc(=O)c2c1` [Example 88] has a melting point of 156.5 to 157.1 °C.
With `CSc1ccc(Oc2ccc(-c3nc(=O)c4ccccc4s3)cn2)cc1` [Example 89] the melting point was 140.5 to 140.6 °C.
With `Cc1ccc(Sc2ccc(-c3nc(=O)c4ccccc4s3)cn2)cc1` [Example 90, 2-[2-(4-Methyl)phenylthio-3-pyridyl]-4H-1,3-benzothiazine-4-one] the melting point was 172.6 to 172.8 °C.
For `CCOc1ccc(-c2nc(=O)c3ccccc3s2)cn1` [Example 91, 2-(6-Ethoxy-3-pyridyl)-4H-1,3-benzothiazine-4-one], the melting point was 152.3 to 156.2 °C.
Compound `CC(C)CCSc1ccc(-c2nc(=O)c3ccccc3s2)cn1` [Example 92] has a melting point of 92.8 to 93.1 °C.
Work on `CC(C)Oc1ccc(-c2nc(=O)c3ccccc3s2)cn1` [Example 93, 2-[6-Isopropoxy-3-pyridyl]-4H-1,3-benzothiazine-4-one] yielded a melting point of 109.7 to 110.4 °C.
`CCOCCOc1ccc(-c2nc(=O)c3ccccc3s2)cn1` [Example 94, 2-[6-(2-Ethoxyethoxy)-3-pyridyl]-4H-1,3-benzothiazine-4-one] showed a melting point of 93.6 to 94.9 °C.
`O=C1c2ccccc2C(=O)N1CCOc1ccc(-c2nc(=O)c3ccccc3s2)cn1` [Example 95] gave a melting point of 212.4 to 212.6 °C.
Work on `CCOC(=O)CCCCCOc1ccc(-c2nc(=O)c3ccccc3s2)cn1` [Example 96, Ethyl 6-{[5-(4-oxo-4H-1,3-benzothiazin-2-yl)-2-pyridyl]oxy}hexanoate] yielded a melting point of 73.6 to 73.9 °C.
Work on `CC(C)(C)OC(=O)CCOCCCc1ccnc(-c2nc(=O)c3ccccc3s2)c1` [Example 101, tert-Butyl 3-[3-[2-(4-oxo-4H-1,3-benzothiazin-2-yl)-4-pyridyl]propoxy]propanoate] yielded a melting point of 81.1 to 82.2 °C.
Work on `CN(C(=O)OC(C)(C)C)c1cccc(-c2nc(=O)c3ccccc3s2)n1` [Example 108, tert-Butyl methyl[6-(4-oxo-4H-1,3-benzothiazin-2-yl)-2-pyridyl]carbamate] yielded a melting point of 195.6 to 196.3 °C.
`CNc1cccc(-c2nc(=O)c3ccccc3s2)n1` [Example 109, 2-(6-Methylamino-2-pyridyl)-4H-1,3-benzothiazine-4-one] showed a melting point of 206.9 to 208 °C.
For `CC(=O)N(C)c1cccc(-c2nc(=O)c3ccccc3s2)n1` [Example 110, N-Methyl-N-[6-(4-oxo-4H-1,3-benzothiazin-2-yl)-2-pyridyl]acetamide], the melting point was 218.3 to 220.3 °C.
`CCC(=O)N(C)c1cccc(-c2nc(=O)c3ccccc3s2)n1` [Example 114, N-Methyl-N-[6-(4-oxo-4H-1,3-benzothiazin-2-yl)-2-pyridyl]propanamide] gave a melting point of 200.6 to 201.2 °C.
`CCCCOc1ccc2sc(-c3ccccn3)nc(=O)c2c1` [Example 116, 6-Butoxy-2-(2-pyridyl)-4H-1,3-benzothiazine-4-one] gave a melting point of 160.9 to 161.8 °C.
With `CC(C)COc1ccc2sc(-c3ccccn3)nc(=O)c2c1` [Example 117, 6-Isobutoxy-2-(2-pyridyl)-4H-1,3-benzothiazine-4-one] the melting point was 135.5 to 136.5 °C.
In the case of `O=c1nc(-c2ccccn2)sc2ccc(OCCCO)cc12` [Example 118, 6-(3-Hydroxypropoxy)-2-(2-pyridyl)-4H-1,3-benzothiazine-4-one], the melting point is reported as 196.6 to 197.7 °C.
`O=c1nc(-c2ccccn2)sc2ccc(OCCCCCCO)cc12` [Example 119, 6-(6-Hydroxyhexyloxy)-2-(2-pyridyl)-4H-1,3-benzothiazine-4-one] gave a melting point of 135.6 to 137 °C.
In the case of `O=c1nc(-c2ccccn2)sc2ccc(OCCCc3ccccc3)cc12` [Example 120, 6-(3-Phenylpropoxy)-2-(2-pyridyl)-4H-1,3-benzothiazine-4-one], the melting point is reported as 170 to 170.3 °C.
In the case of `O=c1nc(-c2ccccn2)sc2ccc(OCc3ccccc3)cc12` [Example 121, 6-(Benzyloxy)-2-(2-pyridyl)-4H-1,3-benzothiazine-4-one], the melting point is reported as 198 to 198.8 °C.
Work on `CC(C)(C)OC(=O)COc1ccc2sc(-c3ccccn3)nc(=O)c2c1` [Example 122, tert-Butyl 2-[[4-oxo-2-(2-pyridyl)-4H-1,3-benzothiazin-6-yl]oxy]acetate] yielded a melting point of 183 to 184.1 °C.
With `O=C(O)COc1ccc2sc(-c3ccccn3)nc(=O)c2c1` [Example 123, 2-[[4-Oxo-2-(2-pyridyl)-4H-1,3-benzothiazin-6-yl]oxy]acetic acid] the melting point was 250 °C (dec.).
With `CC(C)(C)OC(=O)CCCCCOc1ccc2sc(-c3ccccn3)nc(=O)c2c1` [Example 124, tert-Butyl 6-[[4-oxo-2-(2-pyridyl)-4H-1,3-benzothiazin-6-yl]oxy]hexanoate] the melting point was 101.2 to 102.4 °C.
Work on `O=C(O)CCCCCOc1ccc2sc(-c3ccccn3)nc(=O)c2c1` [Example 125, 6-[[4-Oxo-2-(2-pyridyl)-4H-1,3-benzothiazin-6-yl]oxy]hexanoic acid] yielded a melting point of 205.4 to 206.3 °C.
In the case of `CCCCCSc1cccc(-c2nc(=O)c3ccccc3s2)n1` [Example 129, 2-[6-(Pentylthio)-2-pyridyl]-4H-1,3-benzothiazine-4-one], the melting point is reported as 105 to 105.1 °C.
For `CC(C)CCSc1cccc(-c2nc(=O)c3ccccc3s2)n1` [Example 130, 2-[6-(Isopentylthio)-2-pyridyl]-4H-1,3-benzothiazine-4-one], the melting point was 103.4 to 105.1 °C.
With `O=c1nc(-c2cccc(SCCc3ccccc3)n2)sc2ccccc12` [Example 131, 2-[6-(2-Phenethylthio)-2-pyridyl]-4H-1,3-benzothiazine-4-one] the melting point was 167.1 to 168.4 °C.
In the case of `O=C(O)c1ccc2c(=O)nc(-c3ccccn3)sc2c1` [Example 135, 4-Oxo-2-(2-pyridyl)-4H-1,3-benzothiazine-7-carboxylic acid], the melting point is reported as 294.7 to 295.1 °C.
With `Cc1cccc(-c2nc(=O)c3ccccc3s2)n1` [Example 136, 2-(6-Methyl-2-pyridyl)-4H-1,3-benzothiazine-4-one] the melting point was 169.8 to 170.3 °C.
